Columns and labels:
Experiment in all cases: biochemical
ETA (h) = target: T1, ETA (h) (Homo sapiens, UniProt P25101); parameters: CEREP ExpresSProfile competition binding, remaining control specific binding of reference compound; conditions: radioligand binding; read-out: Mean % of control specific binding (±sd)
T1 construct: gene EDNRA

mu (MOP) (h) = target: T2, mu (MOP) (h) (Homo sapiens, UniProt P35372); parameters: CEREP ExpresSProfile competition binding, remaining control specific binding of reference compound; conditions: radioligand binding; read-out: Mean % of control specific binding (±sd)
T2 construct: gene OPRM1

A2A (h) = target: T3, A2A (h) (Homo sapiens, UniProt P29274); parameters: CEREP ExpresSProfile competition binding, remaining control specific binding of reference compound; conditions: radioligand binding; read-out: Mean % of control specific binding (±sd)
T3 construct: gene ADORA2A
T3 sequence (P29274 whole entry): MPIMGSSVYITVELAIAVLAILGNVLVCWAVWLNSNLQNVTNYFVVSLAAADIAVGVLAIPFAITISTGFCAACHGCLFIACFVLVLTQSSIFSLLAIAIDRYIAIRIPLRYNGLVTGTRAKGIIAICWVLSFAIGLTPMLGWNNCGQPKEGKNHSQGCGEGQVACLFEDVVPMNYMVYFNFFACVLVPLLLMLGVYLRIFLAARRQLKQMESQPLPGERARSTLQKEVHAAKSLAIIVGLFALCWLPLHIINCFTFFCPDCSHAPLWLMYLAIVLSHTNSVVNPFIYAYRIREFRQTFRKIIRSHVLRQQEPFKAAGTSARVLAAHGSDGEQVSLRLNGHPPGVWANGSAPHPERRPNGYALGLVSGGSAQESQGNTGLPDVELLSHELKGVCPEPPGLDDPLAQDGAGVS

5-HT6 (h) = target: T4, 5-HT6 (h) (Homo sapiens, UniProt P50406); parameters: CEREP ExpresSProfile competition binding, remaining control specific binding of reference compound; conditions: radioligand binding; read-out: Mean % of control specific binding (±sd)
T4 construct: gene HTR6

delta (DOP) (h) = target: T5, delta (DOP) (h) (Homo sapiens, UniProt P41143); parameters: CEREP ExpresSProfile competition binding, remaining control specific binding of reference compound; conditions: radioligand binding; read-out: Mean % of control specific binding (±sd)
T5 construct: gene OPRD1

5-HT2B (h) = target: T6, 5-HT2B (h) (Homo sapiens, UniProt P41595); parameters: CEREP ExpresSProfile competition binding, remaining control specific binding of reference compound; conditions: radioligand binding; read-out: Mean % of control specific binding (±sd)
T6 construct: gene HTR2B

5-HT7 (h) = target: T7, 5-HT7 (h) (Homo sapiens, UniProt P34969); parameters: CEREP ExpresSProfile competition binding, remaining control specific binding of reference compound; conditions: radioligand binding; read-out: Mean % of control specific binding (±sd)
T7 construct: gene HTR7
T7 sequence (P34969 whole entry): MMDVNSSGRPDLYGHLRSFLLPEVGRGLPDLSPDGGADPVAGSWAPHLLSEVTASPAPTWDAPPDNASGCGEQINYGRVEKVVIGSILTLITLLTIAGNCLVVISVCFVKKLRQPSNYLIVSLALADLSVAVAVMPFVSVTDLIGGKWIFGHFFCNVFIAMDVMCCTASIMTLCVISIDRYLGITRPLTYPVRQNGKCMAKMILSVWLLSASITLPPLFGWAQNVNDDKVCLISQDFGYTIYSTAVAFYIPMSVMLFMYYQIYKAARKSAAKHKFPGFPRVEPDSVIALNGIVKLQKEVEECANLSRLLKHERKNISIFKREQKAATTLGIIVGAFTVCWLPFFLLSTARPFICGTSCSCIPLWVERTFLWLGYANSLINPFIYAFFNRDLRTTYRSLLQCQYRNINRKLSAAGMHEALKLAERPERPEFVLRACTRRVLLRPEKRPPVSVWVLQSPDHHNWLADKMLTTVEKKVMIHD

ROCK 2 = target: T8, ROCK 2 (Homo sapiens, UniProt O75116); parameters: Dundee MRC-PPU Express kinase screen, remaining kinase activity; conditions: read-out: Mean % of remaining kinase activity (±sd)
T8 construct: gene ROCK2
T8 sequence (O75116 whole entry): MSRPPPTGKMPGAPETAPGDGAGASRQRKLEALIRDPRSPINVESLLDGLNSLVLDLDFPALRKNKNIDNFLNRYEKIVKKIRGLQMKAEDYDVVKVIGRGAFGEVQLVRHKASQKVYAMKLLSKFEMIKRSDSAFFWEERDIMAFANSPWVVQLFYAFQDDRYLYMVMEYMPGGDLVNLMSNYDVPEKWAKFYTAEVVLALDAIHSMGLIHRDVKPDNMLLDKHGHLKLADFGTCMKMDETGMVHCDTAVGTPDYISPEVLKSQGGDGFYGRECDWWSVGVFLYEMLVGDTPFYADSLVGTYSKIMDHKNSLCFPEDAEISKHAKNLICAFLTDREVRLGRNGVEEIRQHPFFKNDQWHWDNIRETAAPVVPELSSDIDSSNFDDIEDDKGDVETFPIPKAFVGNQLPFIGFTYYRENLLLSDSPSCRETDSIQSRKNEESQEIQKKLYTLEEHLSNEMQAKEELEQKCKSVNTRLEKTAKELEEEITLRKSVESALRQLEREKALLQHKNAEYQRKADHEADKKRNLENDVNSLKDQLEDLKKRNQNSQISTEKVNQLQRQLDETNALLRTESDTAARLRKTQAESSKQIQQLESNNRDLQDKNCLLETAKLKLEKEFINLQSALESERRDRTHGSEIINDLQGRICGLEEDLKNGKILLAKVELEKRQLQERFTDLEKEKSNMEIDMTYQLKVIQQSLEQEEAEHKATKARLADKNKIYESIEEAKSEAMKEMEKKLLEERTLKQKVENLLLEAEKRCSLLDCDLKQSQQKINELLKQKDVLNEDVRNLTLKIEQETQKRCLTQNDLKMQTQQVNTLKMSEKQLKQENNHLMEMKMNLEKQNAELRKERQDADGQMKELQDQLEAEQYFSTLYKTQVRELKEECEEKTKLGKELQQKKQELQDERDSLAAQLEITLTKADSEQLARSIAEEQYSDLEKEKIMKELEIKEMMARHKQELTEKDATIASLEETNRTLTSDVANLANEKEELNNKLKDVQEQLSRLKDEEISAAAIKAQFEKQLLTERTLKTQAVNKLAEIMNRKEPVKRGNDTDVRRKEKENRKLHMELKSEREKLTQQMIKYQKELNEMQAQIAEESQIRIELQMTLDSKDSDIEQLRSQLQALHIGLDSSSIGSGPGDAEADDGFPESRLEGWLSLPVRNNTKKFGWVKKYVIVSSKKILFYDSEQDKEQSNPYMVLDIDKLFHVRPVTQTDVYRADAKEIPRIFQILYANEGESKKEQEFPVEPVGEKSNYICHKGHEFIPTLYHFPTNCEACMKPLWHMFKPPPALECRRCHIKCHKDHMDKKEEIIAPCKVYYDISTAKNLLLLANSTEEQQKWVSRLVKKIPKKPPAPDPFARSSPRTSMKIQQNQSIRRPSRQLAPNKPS

EPH-A2 = target: T9, EPH-A2 (Homo sapiens, UniProt P29317); parameters: Dundee MRC-PPU Express kinase screen, remaining kinase activity; conditions: read-out: Mean % of remaining kinase activity (±sd)
T9 construct: gene EPHA2

S6K1 = target: T10, S6K1 (Homo sapiens, UniProt P23443); parameters: Dundee MRC-PPU Express kinase screen, remaining kinase activity; conditions: read-out: Mean % of remaining kinase activity (±sd)
T10 construct: gene RPS6KB1

PLK1 = PLK1 (Homo sapiens, UniProt P53350); parameters: Dundee MRC-PPU Express kinase screen, remaining kinase activity; conditions: read-out: Mean % of remaining kinase activity (±sd)
HER4 = target: T11, HER4 (Homo sapiens, UniProt Q15303); parameters: Dundee MRC-PPU Express kinase screen, remaining kinase activity; conditions: read-out: Mean % of remaining kinase activity (±sd)
T11 construct: gene ERBB4

MST2 = target: T12, MST2 (Homo sapiens, UniProt Q13188); parameters: Dundee MRC-PPU Express kinase screen, remaining kinase activity; conditions: read-out: Mean % of remaining kinase activity (±sd)
T12 construct: gene STK3
T12 sequence (Q13188 whole entry): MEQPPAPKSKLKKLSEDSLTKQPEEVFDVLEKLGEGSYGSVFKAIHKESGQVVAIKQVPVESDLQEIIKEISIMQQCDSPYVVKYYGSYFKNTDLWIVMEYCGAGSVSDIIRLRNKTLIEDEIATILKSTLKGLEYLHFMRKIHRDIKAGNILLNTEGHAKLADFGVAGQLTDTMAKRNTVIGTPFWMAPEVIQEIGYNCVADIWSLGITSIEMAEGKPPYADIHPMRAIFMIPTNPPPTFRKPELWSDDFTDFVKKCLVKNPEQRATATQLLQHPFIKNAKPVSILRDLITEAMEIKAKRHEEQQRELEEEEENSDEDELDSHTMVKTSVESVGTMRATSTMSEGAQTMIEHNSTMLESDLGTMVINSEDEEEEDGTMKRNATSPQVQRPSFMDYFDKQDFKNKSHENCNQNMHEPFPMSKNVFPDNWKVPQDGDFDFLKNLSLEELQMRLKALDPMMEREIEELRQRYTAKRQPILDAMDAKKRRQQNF

RIPK2 = RIPK2 (Homo sapiens, UniProt O43353); parameters: Dundee MRC-PPU Express kinase screen, remaining kinase activity; conditions: read-out: Mean % of remaining kinase activity (±sd)
Lck = Lck (Homo sapiens, UniProt P06239); parameters: Dundee MRC-PPU Express kinase screen, remaining kinase activity; conditions: read-out: Mean % of remaining kinase activity (±sd)
Sequence of Lck (P06239 whole entry): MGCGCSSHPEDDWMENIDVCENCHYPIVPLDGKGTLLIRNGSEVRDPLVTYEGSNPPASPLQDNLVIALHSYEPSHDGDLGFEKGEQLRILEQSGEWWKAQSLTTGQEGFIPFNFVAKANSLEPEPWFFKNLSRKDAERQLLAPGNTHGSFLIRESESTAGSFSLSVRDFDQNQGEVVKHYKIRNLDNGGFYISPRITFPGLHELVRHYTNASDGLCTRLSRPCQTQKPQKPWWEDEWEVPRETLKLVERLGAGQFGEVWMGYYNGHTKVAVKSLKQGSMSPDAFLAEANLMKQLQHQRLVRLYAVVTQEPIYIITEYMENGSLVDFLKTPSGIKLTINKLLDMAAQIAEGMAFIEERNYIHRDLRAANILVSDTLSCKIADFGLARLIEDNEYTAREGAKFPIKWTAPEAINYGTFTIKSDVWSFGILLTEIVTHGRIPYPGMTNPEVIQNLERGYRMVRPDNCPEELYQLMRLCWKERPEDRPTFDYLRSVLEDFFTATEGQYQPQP

MARK3 = MARK3 (Homo sapiens, UniProt P27448); parameters: Dundee MRC-PPU Express kinase screen, remaining kinase activity; conditions: read-out: Mean % of remaining kinase activity (±sd)
Sequence of MARK3 (P27448 whole entry): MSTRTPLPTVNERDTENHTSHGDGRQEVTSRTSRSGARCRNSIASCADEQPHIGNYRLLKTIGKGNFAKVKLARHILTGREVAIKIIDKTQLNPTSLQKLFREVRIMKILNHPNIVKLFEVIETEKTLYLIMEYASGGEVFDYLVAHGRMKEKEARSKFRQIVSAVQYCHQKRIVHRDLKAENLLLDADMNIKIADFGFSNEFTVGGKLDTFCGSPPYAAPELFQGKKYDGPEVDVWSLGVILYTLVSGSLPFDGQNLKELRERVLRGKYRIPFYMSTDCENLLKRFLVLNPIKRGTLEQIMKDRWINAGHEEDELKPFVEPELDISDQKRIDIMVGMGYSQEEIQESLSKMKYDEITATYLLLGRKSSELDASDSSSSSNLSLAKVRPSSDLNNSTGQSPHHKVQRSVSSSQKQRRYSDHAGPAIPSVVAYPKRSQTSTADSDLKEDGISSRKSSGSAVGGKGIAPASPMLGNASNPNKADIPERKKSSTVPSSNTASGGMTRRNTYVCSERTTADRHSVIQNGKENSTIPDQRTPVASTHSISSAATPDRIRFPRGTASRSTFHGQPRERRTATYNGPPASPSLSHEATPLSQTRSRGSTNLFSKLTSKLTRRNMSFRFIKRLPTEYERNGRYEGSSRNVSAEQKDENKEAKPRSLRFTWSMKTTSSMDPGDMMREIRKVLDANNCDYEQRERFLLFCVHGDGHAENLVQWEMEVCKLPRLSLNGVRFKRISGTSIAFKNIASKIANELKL

DYRK1A = DYRK1A (Homo sapiens, UniProt Q13627); parameters: Dundee MRC-PPU Express kinase screen, remaining kinase activity; conditions: read-out: Mean % of remaining kinase activity (±sd)
IGF-1R = target: T13, IGF-1R (Homo sapiens, UniProt P08069); parameters: Dundee MRC-PPU Express kinase screen, remaining kinase activity; conditions: read-out: Mean % of remaining kinase activity (±sd)
T13 construct: gene IGF1R

PDK1 = target: T14, PDK1 (Homo sapiens, UniProt O15530); parameters: Dundee MRC-PPU Express kinase screen, remaining kinase activity; conditions: read-out: Mean % of remaining kinase activity (±sd)
T14 construct: gene PDPK1

Aurora B = target: T15, Aurora B (Homo sapiens, UniProt Q96GD4); parameters: Dundee MRC-PPU Express kinase screen, remaining kinase activity; conditions: read-out: Mean % of remaining kinase activity (±sd)
T15 construct: gene AURKB

PKD1 = target: T16, PKD1 (Homo sapiens, UniProt Q15139); parameters: Dundee MRC-PPU Express kinase screen, remaining kinase activity; conditions: read-out: Mean % of remaining kinase activity (±sd)
T16 construct: gene PRKD1
T16 sequence (Q15139 whole entry): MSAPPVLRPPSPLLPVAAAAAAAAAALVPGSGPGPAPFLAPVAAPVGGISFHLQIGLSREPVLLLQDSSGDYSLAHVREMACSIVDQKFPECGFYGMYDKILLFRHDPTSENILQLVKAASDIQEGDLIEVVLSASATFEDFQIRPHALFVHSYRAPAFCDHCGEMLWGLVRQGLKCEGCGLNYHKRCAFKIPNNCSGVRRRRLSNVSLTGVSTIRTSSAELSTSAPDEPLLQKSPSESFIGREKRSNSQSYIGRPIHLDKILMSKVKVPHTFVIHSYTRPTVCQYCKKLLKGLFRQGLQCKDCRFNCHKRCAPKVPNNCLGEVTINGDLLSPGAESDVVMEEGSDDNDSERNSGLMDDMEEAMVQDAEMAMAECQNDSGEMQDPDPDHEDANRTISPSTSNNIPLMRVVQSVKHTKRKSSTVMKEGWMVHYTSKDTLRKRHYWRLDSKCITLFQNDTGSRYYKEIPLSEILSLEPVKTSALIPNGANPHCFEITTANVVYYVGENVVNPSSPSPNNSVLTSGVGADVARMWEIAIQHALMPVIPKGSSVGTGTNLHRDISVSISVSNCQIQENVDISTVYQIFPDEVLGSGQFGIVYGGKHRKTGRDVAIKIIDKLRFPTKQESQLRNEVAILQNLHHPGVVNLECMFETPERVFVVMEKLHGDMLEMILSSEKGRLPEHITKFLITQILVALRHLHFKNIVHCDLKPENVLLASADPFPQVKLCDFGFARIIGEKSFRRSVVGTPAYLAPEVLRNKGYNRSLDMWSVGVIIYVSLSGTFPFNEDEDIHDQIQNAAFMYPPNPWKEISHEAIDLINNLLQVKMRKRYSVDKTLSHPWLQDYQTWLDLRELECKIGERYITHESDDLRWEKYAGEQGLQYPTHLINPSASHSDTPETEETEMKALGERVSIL

PKCa = target: T17, PKCa (Homo sapiens, UniProt P17252); parameters: Dundee MRC-PPU Express kinase screen, remaining kinase activity; conditions: read-out: Mean % of remaining kinase activity (±sd)
T17 construct: gene PRKCA

SRPK1 = SRPK1 (Homo sapiens, UniProt Q96SB4); parameters: Dundee MRC-PPU Express kinase screen, remaining kinase activity; conditions: read-out: Mean % of remaining kinase activity (±sd)
PKA = target: T18, PKA (Homo sapiens, UniProt P17612); parameters: Dundee MRC-PPU Express kinase screen, remaining kinase activity; conditions: read-out: Mean % of remaining kinase activity (±sd)
T18 construct: gene PRKACA

RSK1 = target: T19, RSK1 (Homo sapiens, UniProt Q15418); parameters: Dundee MRC-PPU Express kinase screen, remaining kinase activity; conditions: read-out: Mean % of remaining kinase activity (±sd)
T19 construct: gene RPS6KA1

CAMK1 = CAMK1 (Homo sapiens, UniProt Q14012); parameters: Dundee MRC-PPU Express kinase screen, remaining kinase activity; conditions: read-out: Mean % of remaining kinase activity (±sd)
EF2K = target: T20, EF2K (Homo sapiens, UniProt O00418); parameters: Dundee MRC-PPU Express kinase screen, remaining kinase activity; conditions: read-out: Mean % of remaining kinase activity (±sd)
T20 construct: gene EEF2K

With `Cc1ncsc1-c1ccc(CNC(=O)[C@@H]2C[C@@H](O)CN2C(=O)[C@@H](NC(=O)C2(C#N)CC2)C(C)(C)C)cc1` [VH298] the remaining binding at 50 µM (ETA (h)) was 88%, the remaining binding at 50 µM (mu (MOP) (h)) was 106% and the remaining binding at 50 µM (A2A (h)) was 121%. The remaining binding at 50 µM (5-HT6 (h)) was 92%, the remaining binding at 50 µM (delta (DOP) (h)) was 65% and the remaining binding at 50 µM (5-HT2B (h)) was 91%. It also gave a remaining binding at 50 µM (5-HT7 (h)) of 99%, a remaining activity at 50 µM (ROCK 2) of 75% and a remaining activity at 50 µM (EPH-A2) of 107%. It also gave a remaining activity at 50 µM (S6K1) of 87%, a remaining activity at 50 µM (PLK1) of 100% and a remaining activity at 50 µM (HER4) of 96%. The remaining activity at 50 µM (MST2) was 98%, the remaining activity at 50 µM (RIPK2) was 112% and the remaining activity at 50 µM (Lck) was 104%. The remaining activity at 50 µM (MARK3) was 94%, the remaining activity at 50 µM (DYRK1A) was 76% and the remaining activity at 50 µM (IGF-1R) was 110%. For the same molecule, the remaining activity at 50 µM (PDK1) was 110%, the remaining activity at 50 µM (Aurora B) was 78% and the remaining activity at 50 µM (PKD1) was 108%. It also gave a remaining activity at 50 µM (PKCa) of 99%, a remaining activity at 50 µM (SRPK1) of 101% and a remaining activity at 50 µM (PKA) of 68%. It also gave a remaining activity at 50 µM (RSK1) of 94%, a remaining activity at 50 µM (CAMK1) of 81% and a remaining activity at 50 µM (EF2K) of 116%.
